Experiments:
[1] = target: T1, partially purified β-lactamase PCI (Staphylococcus aureus, UniProt P00807); assay: β-Lactamase inhibition (hydrolysis of ampicillin); assay type: biochemical; conditions: ampicillin sodium 500 µg/ml, 37°C, pH7, read-out: μg/ml of compound giving 50% inhibition of hydrolysis of ampicillin (converted)
T1 construct: partially purified β-lactamases from Escherichia coli (either TEM or RPI), Klebsiella aerogenes (K1) and Staphylococcus aureus (PCI); endogenous in cells; host or cells: Staphylococcus aureus (PCI), enzyme partially purified from the producing bacterium
Description: (§1) The compounds have been tested for their inhibitory activity against partially purified β-lactamases from Escherichia coli (either TEM or RPI), Klebsiella aerogenes (K1) and Staphylococcus aureus (PCI). The substrate used was ampicillin sodium.
(§2) Ampicillin sodium at a concentration of 500 µg/ml was reacted with the enzyme at 37°C and pH7. The enzyme concentration was such as to destroy all the ampicillin within 10 minutes. The reaction was followed spectrophotometrically by observing the loss of absorption at 238 nm. Concentrations of the compound were added to inhibit the reaction, and the I5O value represents µg/ml of compound halving the initial velocity of hydrolysis of ampicillin.

[2] = target: partially purified β-lactamase K1; assay: β-Lactamase inhibition (hydrolysis of ampicillin); assay type: biochemical; conditions: β-lactamase KI; ampicillin sodium 500 µg/ml, 37°C, pH7
Description: as §1, §2

[3] = target: T2, partially purified β-lactamase TEM (Escherichia coli, UniProt P62593); assay: β-Lactamase inhibition (hydrolysis of ampicillin); assay type: biochemical; conditions: ampicillin sodium 500 µg/ml, 37°C, pH7, read-out: μg/ml of compound giving 50% inhibition of hydrolysis of ampicillin (converted)
T2 construct: partially purified β-lactamases from Escherichia coli (either TEM or RPI); endogenous in cells; host or cells: Escherichia coli carrying the TEM plasmid, enzyme partially purified from the bacterium
Description: as §1, §2

K. aerogenes 1963E = assay: Synergy testing with amoxycillin (MIC, agar dilution); assay type: cell-based
From the text: (§3) Serial two-fold dilutions of freshly prepared test solution were made into Oxoid No. 1 Nutrient agar with or without added enrichment and poured into petri dishes. Plates were innoculated with a multipoint innoculator with innoculum containing approximately 10^5 colony forming units of the organisms shown in Table 1, all of which are clinical isolates.
(§4) Method as for 1, incorporating amoxycillin in serial two-fold dilutions along with a sub-inhibitory, fixed concentration of the test clavulanic acid derivative, as shown in the Table. All of the organisms are clinical isolates.

E. coli (TEM^+) 1193E = assay: as above; assay type: cell-based
From the text: as §3, §4

Pr. rettgeri 1356E = assay: as above; assay type: cell-based
From the text: as §3, §4

Toxicity in mice = conditions: mouse, in vivo, ip; administered intraperitoneally to mice
E. cloacae 1051E = assay: Minimum Inhibitory Concentration (MIC), agar dilution; assay type: cell-based; conditions: 18 hours at 37°C
From the text: as §3

H. influenzae 1184E = assay: as above; assay type: cell-based; conditions: 18 hours at 37°C
From the text: as §3

S. marcescens 1324E = assay: as above; assay type: cell-based; conditions: 18 hours at 37°C
From the text: as §3

Staph. aureus 853E [4] = assay: as above; assay type: cell-based; conditions: 18 hours at 37°C
From the text: as §3

K. aerogenes 1522E = assay: as above; assay type: cell-based; conditions: 18 hours at 37°C
From the text: as §3

Micrococcus SP 1810E = assay: as above; assay type: cell-based; conditions: 18 hours at 37°C
From the text: as §3

E. cloacae 1321E = assay: as above; assay type: cell-based; conditions: 18 hours at 37°C
From the text: as §3

E. coli 851E = assay: as above; assay type: cell-based; conditions: 18 hours at 37°C
From the text: as §3

Staph. aureus 853E [5] = assay: Synergy testing with amoxycillin (MIC, agar dilution); assay type: cell-based
From the text: as §3, §4

[6] = in the presence of 1µg/ml of compound
[7] = in the presence of 4µg/ml of compound

T2 sequence (P62593 24-286 limits assumed): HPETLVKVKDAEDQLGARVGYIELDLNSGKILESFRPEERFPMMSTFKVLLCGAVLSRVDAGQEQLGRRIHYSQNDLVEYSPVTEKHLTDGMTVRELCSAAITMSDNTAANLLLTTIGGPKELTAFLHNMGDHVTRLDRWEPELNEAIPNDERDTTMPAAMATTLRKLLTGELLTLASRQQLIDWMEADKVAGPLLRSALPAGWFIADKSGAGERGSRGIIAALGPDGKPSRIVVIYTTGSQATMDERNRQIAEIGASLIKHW
T1 sequence (P00807 25-281): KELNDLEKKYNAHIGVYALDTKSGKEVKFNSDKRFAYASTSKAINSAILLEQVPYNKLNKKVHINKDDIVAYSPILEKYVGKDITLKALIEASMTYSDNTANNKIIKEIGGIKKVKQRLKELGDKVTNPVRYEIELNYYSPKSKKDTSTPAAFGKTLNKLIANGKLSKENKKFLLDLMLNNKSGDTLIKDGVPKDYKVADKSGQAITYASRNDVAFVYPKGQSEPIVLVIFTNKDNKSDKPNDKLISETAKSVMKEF

Compound | IC50 [1] | μg/ml of compound giving 50% inhibition of hydrolysis of ampicillin [2] | IC50 [3] | MIC of amoxycillin (K. aerogenes 1963E; [6]) | MIC of amoxycillin (E. coli (TEM^+) 1193E; [6]) | MIC of amoxycillin (Pr. rettgeri 1356E; [6]) | MIC of amoxycillin (Pr. rettgeri 1356E; [7]) | LD50 (Toxicity in mice) | MIC (agar dilution) of compound (E. cloacae 1051E) | MIC (agar dilution) of compound (H. influenzae 1184E) | MIC (agar dilution) of compound (S. marcescens 1324E) | MIC (agar dilution) of compound (Staph. aureus 853E [4]; Staph. aureus 835E) | MIC (agar dilution) of compound (K. aerogenes 1522E) | MIC (agar dilution) of compound (Micrococcus SP 1810E) | MIC (agar dilution) of compound (E. cloacae 1321E) | MIC (agar dilution) of compound (E. coli 851E) | MIC (agar dilution) of compound (Staph. aureus 853E [4]; Staph. aureus 853E) | also measured
CCOC(=O)c1nnn(C/C=C2\O[C@@H]3CC(=O)N3[C@H]2C(=O)O)c1C(=O)OCC [Example 2, Sodium (3R,5R,Z)-2-[2-(4,5-diethoxcarbonl-1,2,3-triazol-1-yl)-ethylidene]-clavam-3-carboxylate] | 5.33 µM | 0.8 µg/mL | 0.761 µM |  |  |  |  |  |  |  |  |  |  |  |  |  |  | 
CCOC(=O)c1cn(C/C=C2\O[C@@H]3CC(=O)N3[C@H]2C(=O)O)nn1 [Example 4] | 0.419 µM | 0.35 µg/mL |  | 2 mg/L | > 250 mg/L | 125 mg/L | 4 mg/L | > 500 mg/kg | 16 mg/L | 62 mg/L | 125 mg/L | <0.1 mg/L | 8 mg/L | <0.1 mg/L | 16 mg/L | 4 mg/L |  | 
CC(=O)c1cn(C/C=C2\O[C@@H]3CC(=O)N3[C@H]2C(=O)O)nn1 [Example 6, Sodium (3R,5R,Z)-2-[2-(4-acetyl-1,2,3-triazol-l-yl)-ethlidene]-clavam-3-carboxylate] | 0.616 µM | 0.155 µg/mL |  |  |  |  |  | > 500 mg/kg | 8 mg/L | 62 mg/L | 62 mg/L | <0.1 mg/L | 8 mg/L | <0.1 mg/L | 8 mg/L | 4 mg/L |  | 
O=C(O)c1cn(C/C=C2\O[C@@H]3CC(=O)N3[C@H]2C(=O)O)nn1 [Example 8, Disodium (3R,5R.Z)-2-[2-(4-carboxy-1.2.3-triazol-l-yl)-ethylidene]-clavam-3-carboxylate] | 9.86 µM | 0.22 µg/mL | 0.374 µM |  |  |  |  |  | 16 mg/L | 31 mg/L | 31 mg/L | 8 mg/L | 16 mg/L | 8 mg/L | 8 mg/L | 8 mg/L |  | 
CC(=O)c1cnnn1C/C=C1\O[C@@H]2CC(=O)N2[C@H]1C(=O)O [Example 10, Sodium (3R,5R.Z)-2-[2-(5-acetvl-1.2,3-triazol-l-yl)-ethylidene]-clavam-3-carboxylate] | 2.4 µM | 0.62 µg/mL | 1.98 µM |  |  |  |  |  |  |  |  |  |  |  |  |  |  | 
NC(=O)c1cn(C/C=C2\O[C@@H]3CC(=O)N3[C@H]2C(=O)O)nn1 [Example 12] | 1.23 µM | 0.34 µg/mL | 0.426 µM | 1 mg/L | 62 mg/L | 8 mg/L | 1 mg/L |  | 4 mg/L | 31 mg/L | 8 mg/L |  | 8 mg/L | 0.2 mg/L | 4 mg/L | 4 mg/L | 0.5 mg/L | MIC of amoxycillin (K. aerogenes 1963E; [7]): < 0.1 mg/L; MIC of amoxycillin (E. coli (TEM^+) 1193E; [7]): 1 mg/L
CNC(=O)c1cn(C/C=C2\O[C@@H]3CC(=O)N3[C@H]2C(=O)O)nn1 [Example 14, Sodium (3R,5R.Z)-2-{2-[4-(N-methylcarbamoyl)-1.2.3-triazol-1-yl]-ethylidene}-clavam-3-carboxylate] | 2.18 µM | 0.7 µg/mL |  | 8 mg/L | 62 mg/L | 8 mg/L | 1 mg/L | > 500 mg/kg | 16 mg/L | 31 mg/L | 31 mg/L |  | 16 mg/L | 1 mg/L | 16 mg/L | 8 mg/L | 1 mg/L | MIC of amoxycillin (K. aerogenes 1963E; [7]): 0.2 mg/L; MIC of amoxycillin (E. coli (TEM^+) 1193E; [7]): 4 mg/L; MIC of amoxycillin (Staph. aureus 853E [5]; [6]): < 0.1 mg/L
N#Cc1cn(C/C=C2\O[C@@H]3CC(=O)N3[C@H]2C(=O)O)nn1 [Example 17, Sodium (3R,5R,Z)-2-[2-(4-cyano-1,2,3-triazol-1-yl)-ethylidene]clavam-3-carboxylate] | 2.54 µM | 0.39 µg/mL | 0.363 µM | 2 mg/L | 31 mg/L | 31 mg/L | 2 mg/L | > 500 mg/kg | 4 mg/L | 16 mg/L | 31 mg/L | <0.1 mg/L | 8 mg/L |  | 4 mg/L | 2 mg/L |  | MIC of amoxycillin (K. aerogenes 1963E; [7]): 0.5 mg/L
COC(=O)c1cn(C/C=C2\O[C@@H]3CC(=O)N3[C@H]2C(=O)O)nn1 [Example 19, Sodium (3R,5R,Z)-2-[2-(4-methoxycarbonyl-1,2,3-triazol-1-y)ethylidene]clavam-3-carboxylate] |  |  |  |  |  | 16 mg/L | 1 mg/L | > 500 mg/kg | 16 mg/L | 62 mg/L | 62 mg/L |  | 16 mg/L |  | 16 mg/L | 4 mg/L | 0.5 mg/L | 
O=C(O)[C@H]1/C(=C/Cn2ccnn2)O[C@@H]2CC(=O)N21 [Example 22] |  |  |  |  |  |  |  |  | 8 mg/L | 16 mg/L | 8 mg/L |  | 8 mg/L |  | 8 mg/L | 4 mg/L | 2 mg/L | 
CC1(C)S[C@@H]2[C@H](NC(=O)[C@H](N)c3ccc(O)cc3)C(=O)N2[C@H]1C(=O)O [amoxycillin, reference compound] |  |  |  |  |  |  |  |  |  |  |  |  |  |  |  |  |  | MIC of amoxycillin (K. aerogenes 1963E; amoxycillin alone): 62 mg/L; MIC of amoxycillin (E. coli (TEM^+) 1193E; amoxycillin alone): > 250 mg/L; MIC of amoxycillin (Staph. aureus 853E [5]; amoxycillin alone): 2 mg/L; MIC of amoxycillin (Pr. rettgeri 1356E; amoxycillin alone): > 250 mg/L
